Source: ChEMBL document CHEMBL5096191 (J Med Chem, 2021)

Experiments:
Assay type in all cases: functional, cell-based
Cannabinoid receptor 2 [1] = target: T1, Cannabinoid receptor 2 (Homo sapiens, UniProt P34972); assay: Positive allosteric modulation of JWH-133-induced agonist activity at wild type CB2 receptor (unknown origin) stably expressed in HEK293T cells assessed as inhibition of forskolin-stimulated cAMP levels preincubated for 15 mins followed by forskolin addition incubated for 15 mins by HTRF assay relative to control; conditions: filed as positive allosteric modulator, time 30.0 min
T1 sequence (P34972 whole entry): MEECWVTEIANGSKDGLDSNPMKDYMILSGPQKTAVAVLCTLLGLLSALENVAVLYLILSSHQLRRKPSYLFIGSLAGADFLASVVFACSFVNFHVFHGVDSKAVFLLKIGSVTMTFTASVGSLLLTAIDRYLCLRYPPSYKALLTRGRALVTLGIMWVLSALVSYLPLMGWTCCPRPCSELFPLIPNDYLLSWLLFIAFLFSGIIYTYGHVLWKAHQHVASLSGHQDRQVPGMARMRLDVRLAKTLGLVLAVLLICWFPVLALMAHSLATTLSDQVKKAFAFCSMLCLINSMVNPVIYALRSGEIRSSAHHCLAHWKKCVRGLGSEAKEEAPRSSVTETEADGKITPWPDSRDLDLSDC

Cannabinoid receptor 2 [2] = target: T1, Cannabinoid receptor 2; assay: Positive allosteric modulation of JWH-133-induced agonist activity at wild type CB2 receptor (unknown origin) stably expressed in HEK293T cells assessed as inhibition of forskolin-stimulated cAMP levels preincubated for 15 mins followed by forskolin addition incubated for 15 mins by HTRF assay
Cannabinoid receptor 2 [3] = target: T1, Cannabinoid receptor 2; assay: Positive allosteric modulation of JWH-133-induced agonist activity at wild type CB2 receptor (unknown origin) stably expressed in HEK293T cells assessed as decrease in cAMP levels preincubated for 15 mins followed by forskolin addition incubated for 15 mins by HTRF assay relative to JWH-133; conditions: filed as positive allosteric modulator, time 30.0 min
Cannabinoid receptor 2 [4] = target: T1, Cannabinoid receptor 2; assay: Partial agonist activity at wild type CB2 receptor (unknown origin) expressed in HEK293T assessed as increase in picometer shifts of reflected light wavelengths by DMR assay relative to control; conditions: filed as partial agonist
[5] = test system: Cannabinoid receptor 2 (Homo sapiens), P34972 [V113M]; assay: Partial agonist activity at CBR2 V1133.32M mutant (unknown origin) stably expressed in HEK293T assessed as decrease in forskolin induced cAMP level preincubated for 15 mins followed by forskolin addition incubated for 15 mins by HTRF assay relative to control; conditions: filed as partial agonist, time 30.0 min
Chain of Cannabinoid receptor 2 (Homo sapiens), P34972 [V113M] (P34972 whole entry V113M): as the sequence (P34972 whole entry) above, with V113M counted along it

Cannabinoid receptor 2 [6] = target: T1, Cannabinoid receptor 2; assay: Partial agonist activity at wild type CB2 receptor (unknown origin) stably expressed in HEK293T assessed as decrease in forskolin induced cAMP level preincubated for 15 mins followed by forskolin addition incubated for 15 mins by HTRF assay relative to control; conditions: filed as partial agonist, time 30.0 min
[7] = test system: Cannabinoid receptor 2 (Homo sapiens), P34972 [V113M]; assay: Partial agonist activity at CBR2 V1133.32M mutant (unknown origin) expressed in HEK293T assessed as increase in ERK1/2 phosphorylation incubated for 7 mins by AlphaScreenSureFire method relative to control; conditions: filed as partial agonist
Cannabinoid receptor 2 [8] = target: T1, Cannabinoid receptor 2; assay: Partial agonist activity at wild type CB2 receptor (unknown origin) expressed in HEK293T assessed as increase in ERK1/2 phosphorylation incubated for 7 mins by AlphaScreenSureFire method relative to control; conditions: filed as partial agonist
[9] = test system: Cannabinoid receptor 2 (Homo sapiens), P34972 [V113M]; assay: Partial agonist activity at CBR2 V1133.32M mutant (unknown origin) expressed in HEK293T assessed as increase in picometer shifts of reflected light wavelengths by DMR assay relative to control
Cannabinoid receptor 2 [10] = target: T1, Cannabinoid receptor 2; assay: Negative allosteric modulation of JWH-133-induced agonist activity at wild type CB2 receptor (unknown origin) stably expressed in HEK293T cells assessed as decrease in cAMP levels preincubated for 15 mins followed by forskolin addition incubated for 15 mins by HTRF assay relative to JWH-133; conditions: time 30.0 min

For `C=C(C)[C@@H]1CCC(C)=C[C@H]1c1c(O)cc(CCC)cc1O` [CANNABIDIVARIN], the Emax (Cannabinoid receptor 2 [1]) was 48%, the EC50 (Cannabinoid receptor 2 [2]) was 12.6 nM and the %max (Cannabinoid receptor 2 [3]) was 118%.

For `C=C(C)[C@@H]1CCC(C)=C[C@H]1c1c(O)cc(CCCCC)cc1O`, the Emax (Cannabinoid receptor 2 [4]) was 49.1%, the Emax [5] was 89.1% and the Emax (Cannabinoid receptor 2 [6]) was 74%. For the same compound, the Emax (Cannabinoid receptor 2 [1]) was 67.8%, the Emax [7] was 186% and the Emax (Cannabinoid receptor 2 [8]) was 156%. It also gave an Emax [9] of 5.3%.

With `C=C(C)[C@@H]1CCC(C)=C[C@H]1c1c(O)cc(CCCC)cc1O` the %max (Cannabinoid receptor 2 [10]; filed as negative allosteric modulator) was 82%, the Emax (Cannabinoid receptor 2 [1]) was 64.1% and the EC50 (Cannabinoid receptor 2 [2]) was 200 nM.

`C=C(C)[C@@H]1CCC(C)=C[C@H]1c1c(O)cc(CC)cc1O` showed an Emax (Cannabinoid receptor 2 [1]) of 45.3%, an EC50 (Cannabinoid receptor 2 [2]) of 31.6 nM and a %max (Cannabinoid receptor 2 [3]) of 124%.

With `C=C(C)[C@@H]1CCC(C)=C[C@H]1c1c(O)cc(CCCCCC)cc1O` the %max (Cannabinoid receptor 2 [10]) was 38%, the Emax (Cannabinoid receptor 2 [1]) was 83.5% and the EC50 (Cannabinoid receptor 2 [2]) was 126 nM.
